Experimental data from US12053473B2, “Benzylamino substituted quinazolines and derivatives as SOS1 inhibitors” (priority 2016, dated 2024).
Read-outs that look alike come from different tables or passages of the source.

Biological target: SOS1 and KRAS G12D (protein-protein interaction) (Homo sapiens, UniProt Q07889)
Assay: KRAS::SOS1 AlphaScreen binding assay
Description: KRAS::SOS1 AlphaScreen Binding Assay
Low IC50 values are indicative of high potency of the SOS1 inhibitor compound in this assay setting:
10 nM (final assay concentration) KRAS G12D, 10 μM (final assay concentration) GDP and 5 nM (final assay concentration) GST-SOS1 are mixed in assay buffer prior to use and kept at room temperature.
AlphaLSA Glutathione Acceptor Beads and AlphaScreen Streptavidin Donor Beads are mixed in assay buffer at a concentration of 10 μg/mL (final assay concentration) each prior to use and kept at room temperature.
Compounds are diluted to a final start concentration of 100 μM and are tested in duplicate. […] For compound a start concentration of 100 μM, 150 nL of compound solution is transferred per well in 11 concentrations in duplicate with serial 1:5 dilutions.
The assay is run using a fully automated robotic system in a darkened room below 100 Lux. 10 μL of KRAS::SOS1 GDP mix is added into columns 1-24 to the 150 nL of compound solution (final dilution in the assay 1:100, final DMSO concentration 1%).
After a 30 minute incubation time 5 μL of bead mix is added into columns 1-23. Plates are kept at room temperature in a darkened incubator. After a further 60 minute incubation, the signal is measured using a PerkinElmer Envision HTS Multilabel Reader using the AlphaScreen specifications from PerkinElmer. Each plate contains the following controls: • diluted DMSO+KRAS::SOS1 GDP mix+bead mix • diluted DMSO+KRAS::SOS1 GDP mix Result Calculation:
IC50 values are calculated and analyzed using a 4 parametric logistic model.

[1] = assay buffer without EDTA (values not marked with an asterisk), read-out: IC50 (SOS1)
[2] = assay buffer with 100 μM EDTA (values marked with an asterisk), read-out: IC50 (SOS1)

SMILES | IC50 (read-out: IC50 (SOS1)) | further results
Cc1cccc([C@@H](C)Nc2nc(C)nc3ccc(C4CCOCC4)cc23)c1 [I-154] |  | IC50 [1]: 43 nM
Cc1cccc([C@@H](C)Nc2nc(C)nc3ccc(C4CC[S+]([O-])CC4)cc23)c1 (some centres unmarked) [I-160] |  | IC50 [2]: 22 nM
Cc1cccc([C@@H](C)Nc2nc(C)nc3ccc(C4CCS(=O)(=O)CC4)cc23)c1 [I-161] |  | IC50 [2]: 29 nM
COc1cc2nc(C)nc(N[C@H](C)c3cccc(C(F)(F)CO)c3)c2cc1C1CCOCC1 [I-164] |  | IC50 [1]: 3 nM
COCC(=O)N1CCC(c2cc3c(N[C@H](C)c4cccc(C(F)(F)CO)c4)nc(C)nc3cc2OC)CC1 [I-165] |  | IC50 [1]: 2 nM
COc1cc2nc(C)nc(N[C@H](C)c3cccc(C(F)(F)CO)c3)c2cc1C1CCN(C(C)=O)CC1 [I-166] |  | IC50 [1]: 2 nM
COc1cc2nc(C)nc(N[C@H](C)c3cccc(C4(O)COC4)c3)c2cc1C1CCN(C(C)=O)CC1 [I-167] |  | IC50 [1]: 18 nM
Cc1nc(N[C@H](C)c2cccc(C(F)(F)F)c2)c2cc(-c3cnn(C4CCNCC4)c3)ccc2n1 [I-168] |  | IC50 [2]: 48 nM
Cc1nc(N[C@H](C)c2cccc(Cl)c2F)c2cc(C3=CCNCC3)ccc2n1 [I-170] |  | IC50 [2]: 24 nM
Cc1nc(N[C@H](C)c2cccc(C(F)(F)F)c2)c2cc(C3=CCNCC3)ccc2n1 [I-171] |  | IC50 [2]: 18 nM
Cc1nc(N[C@H](C)c2cccc(Cl)c2)c2cc(C3=CCNCC3)ccc2n1 [I-172] |  | IC50 [2]: 39 nM
Cc1cccc([C@@H](C)Nc2nc(C)nc3cc(C)c(C4CCNCC4)cc23)c1 [I-176] |  | IC50 [1]: 46 nM
Cc1nc(N[C@H](C)c2cccc(C(F)(F)F)c2)c2cc(C3CCNCC3)ccc2n1 [I-182] |  | IC50 [2]: 22 nM
Cc1cccc([C@@H](C)Nc2nc(C)nc3ccc(C4CCNCC4)cc23)c1 [I-183] |  | IC50 [2]: 38 nM
COc1cc2nc(C)nc(N[C@H](C)c3cccc(C(F)(F)F)c3)c2cc1-c1ccc(C(=O)N(C)C)nc1 [I-189] |  | IC50 [1]: 23 nM
COc1cc2nc(C)nc(N[C@H](C)c3cccc(C)c3)c2cc1-c1ccc(C(=O)N(C)C)nc1 [I-190] |  | IC50 [1]: 34 nM
COc1cc2nc(C)nc(N[C@H](C)c3cccc(C(F)(F)F)c3)c2cc1-c1ccc(C(=O)N(C)C)cn1 [I-191] |  | IC50 [1]: 35 nM
COc1cc2nc(C)nc(N[C@H](C)c3cccc(C(F)(F)F)c3)c2cc1-c1ccc(C(=O)N(C)CCO)cc1 [I-214] | 40 nM | 
COc1cc2nc(C)nc(N[C@H](C)c3cccc(C(F)(F)F)c3)c2cc1-c1ccc(C(=O)N2CCOCC2)cc1 [I-215] | 37 nM | 

SMILES | IC50 (read-out: IC50 (SOS1)) | further results
COc1cc2nc(C)nc(N[C@H](C)c3cccc(C(F)(F)F)c3)c2cc1-c1ccc(C(=O)N(C)C)c(C)c1 [I-216] | 48 nM | 
COc1cc(-c2cc3c(N[C@H](C)c4cccc(C(F)(F)F)c4)nc(C)nc3cc2OC)ccc1C(=O)N(C)C [I-217] | 43 nM | 
COCC(=O)N1CCC(n2cc(-c3ccc4nc(C)nc(N[C@H](C)c5cccc(C)c5)c4c3)cn2)CC1 [I-219] |  | IC50 (values marked with * in the table, read-out: IC50 (SOS1)): 34 nM
COCC(=O)N1CC=C(c2ccc3nc(C)nc(N[C@H](C)c4cc(N)cc(C(F)(F)F)c4)c3c2)CC1 [I-220] | 3 nM | 
CC(=O)N1CC=C(c2ccc3nc(C)nc(N[C@H](C)c4cccc(C(F)(F)F)c4)c3c2)CC1 [I-221] | 11 nM | 
Cc1nc(N[C@H](C)c2cccc(C(F)(F)F)c2)c2cc(C3=CCC(C(=O)N(C)C)CC3)ccc2n1 (some centres unmarked) [I-222] | 19 nM | 
Cc1nc(N[C@H](C)c2cccc(C(F)(F)F)c2)c2cc(C3=CCC(C(=O)N4CCN(C)CC4)CC3)ccc2n1 (some centres unmarked) [I-223] | 27 nM | 
COc1cc2nc(C)nc(N[C@H](C)c3cc(N)cc(C(F)(F)F)c3)c2cc1-c1ccc(C(=O)N(C)CCO)nc1 [I-224] | 4 nM | 
COc1cc2nc(C)nc(N[C@H](C)c3cccc(C(F)(F)F)c3)c2cc1C1CCC(C(=O)N(C)CC(O)CO)CC1 (some centres unmarked) [I-227] | 27 nM | 
Cc1nc(N[C@H](C)c2cccc(C(F)(F)F)c2)c2cc([C@H]3CC[C@H](C(=O)N(C)C)CC3)ccc2n1 [I-229] | 7 nM | 
COC1CN(C(=O)[C@H]2CC[C@H](c3ccc4nc(C)nc(N[C@H](C)c5cccc(C(F)(F)F)c5)c4c3)CC2)C1 [I-230] | 32 nM | 
Cc1nc(N[C@H](C)c2cccc(C(F)(F)F)c2)c2cc([C@H]3CC[C@H](C(=O)N4CC(F)C4)CC3)ccc2n1 [I-231] | 19 nM | 
Cc1nc(N[C@H](C)c2cccc(C(F)(F)F)c2)c2cc([C@H]3CC[C@@H](C(=O)N(C)C4COC4)CC3)ccc2n1 [I-233] | 38 nM | 
Cc1nc(N[C@H](C)c2cc(N)cc(C(F)(F)F)c2)c2cc([C@H]3CC[C@H](C(=O)N4CCOCC4)CC3)ccc2n1 [I-234] | 2 nM | 
Cc1nc(N[C@H](C)c2cc(N)cc(C(F)(F)F)c2)c2cc([C@H]3CC[C@@H](C(=O)N4CCOCC4)CC3)ccc2n1 [I-235] | 8 nM | 
COCCN(C)C(=O)[C@H]1CC[C@H](c2ccc3nc(C)nc(N[C@H](C)c4cc(N)cc(C(F)(F)F)c4)c3c2)CC1 [I-236] | 2 nM | 
COCCN(C)C(=O)[C@H]1CC[C@@H](c2ccc3nc(C)nc(N[C@H](C)c4cc(N)cc(C(F)(F)F)c4)c3c2)CC1 [I-237] | 9 nM | 
CCN(C)C(=O)[C@H]1CC[C@H](c2ccc3nc(C)nc(N[C@H](C)c4cc(N)cc(C(F)(F)F)c4)c3c2)CC1 [I-238] | 3 nM | 
CCN(C)C(=O)[C@H]1CC[C@@H](c2ccc3nc(C)nc(N[C@H](C)c4cc(N)cc(C(F)(F)F)c4)c3c2)CC1 [I-239] | 15 nM | 

SMILES | IC50 (read-out: IC50 (SOS1)) | further results
COCCN1CCN(C(=O)[C@H]2CC[C@H](c3ccc4nc(C)nc(N[C@H](C)c5cc(N)cc(C(F)(F)F)c5)c4c3)CC2)CC1 [I-240] | 2 nM | 
COCCN1CCN(C(=O)[C@H]2CC[C@@H](c3ccc4nc(C)nc(N[C@H](C)c5cc(N)cc(C(F)(F)F)c5)c4c3)CC2)CC1 [I-241] | 7 nM | 
Cc1nc(N[C@H](C)c2cc(N)cc(C(F)(F)F)c2)c2cc([C@H]3CC[C@H](C(=O)N(C)[C@@H]4CCOC4)CC3)ccc2n1 [I-242] | 5 nM | 
Cc1nc(N[C@H](C)c2cc(N)cc(C(F)(F)F)c2)c2cc([C@H]3CC[C@@H](C(=O)N(C)[C@@H]4CCOC4)CC3)ccc2n1 [I-243] | 9 nM | 
COc1cc2nc(C)nc(N[C@H](C)c3cc(N)cc(C(F)(F)F)c3F)c2cc1[C@H]1CC[C@H](C(=O)N(C)C)CC1 [I-244] | 2 nM | 
COc1cc2nc(C)nc(N[C@H](C)c3cc(N)cc(C(F)(F)F)c3F)c2cc1[C@H]1CC[C@@H](C(=O)N(C)C)CC1 [I-245] | 35 nM | 
COCCN1CCN(C(=O)[C@H]2CC[C@H](c3cc4c(N[C@H](C)c5cc(N)cc(C(F)(F)F)c5F)nc(C)nc4cc3OC)CC2)CC1 [I-246] | 2 nM | 
COCCN1CCN(C(=O)[C@H]2CC[C@@H](c3cc4c(N[C@H](C)c5cc(N)cc(C(F)(F)F)c5F)nc(C)nc4cc3OC)CC2)CC1 [I-247] |  | IC50: 18 nM
COc1cc2nc(C)nc(N[C@H](C)c3cc(N)cc(C(F)(F)F)c3C)c2cc1[C@H]1CC[C@H](C(=O)N(C)C)CC1 [I-248] | 2 nM | 
COc1cc2nc(C)nc(N[C@H](C)c3cc(N)cc(C(F)(F)F)c3C)c2cc1[C@H]1CC[C@@H](C(=O)N(C)C)CC1 [I-249] | 38 nM | 
Cc1nc(N[C@H](C)c2cc(N)cc(C(F)(F)F)c2)c2cc([C@H]3CC[C@H](C(=O)N(C)[C@H]4CCOC4)CC3)ccc2n1 [I-250] | 4 nM | 
Cc1nc(N[C@H](C)c2cc(N)cc(C(F)(F)F)c2)c2cc([C@H]3CC[C@@H](C(=O)N(C)[C@H]4CCOC4)CC3)ccc2n1 [I-251] | 10 nM | 
Cc1nc(N[C@H](C)c2cc(N)cc(C(F)(F)F)c2)c2cc([C@H]3CC[C@@H](C(=O)N(C)CCO)CC3)ccc2n1 [I-253] | 7 nM | 
Cc1nc(N[C@H](C)c2cc(N)cc(C(F)(F)F)c2)c2cc([C@H]3CC[C@H](C(=O)N(C)C[C@H](C)O)CC3)ccc2n1 [I-254] | 2 nM | 
Cc1nc(N[C@H](C)c2cc(N)cc(C(F)(F)F)c2)c2cc([C@H]3CC[C@@H](C(=O)N(C)C[C@H](C)O)CC3)ccc2n1 [I-255] | 8 nM | 
Cc1nc(N[C@H](C)c2cc(N)cc(C(F)(F)F)c2)c2cc([C@H]3CC[C@H](C(=O)N(C)C[C@@H](C)O)CC3)ccc2n1 [I-256] | 3 nM | 
Cc1nc(N[C@H](C)c2cc(N)cc(C(F)(F)F)c2)c2cc([C@H]3CC[C@H](C(=O)N(C)CC(C)(C)O)CC3)ccc2n1 [I-258] | 3 nM | 
Cc1cccc([C@@H](C)Nc2nc(C)nc3ccc([C@H]4CC[C@H](C(=O)N(C)C)CC4)cc23)c1 [I-264] | 13 nM | 
